Values of other authors as cited in patent US20230390267A1, “TREATMENT REGIMENS FOR EARLY IDIOPATHIC PARKINSON'S DISEASE” (BIAL - PORTELA & CA., S.A., priority 2020, published 2023).
Like-named read-outs stand apart in the source and are kept apart here.

Assays:
[1] = tested on: patients suffering from early idiopathic Parkinson's disease; settings: addition of entacapone to levodopa/DDCI in early PD; cited from earlier work
[2] = cited from earlier work
'stable' PD patients = settings: 6 months, cited from earlier work
[3] = tolcapone 100 mg three times daily
[4] = tolcapone 200 mg three times daily

**Q.** With `CCN(CC)C(=O)/C(C#N)=C/c1cc(O)c(O)c([N+](=O)[O-])c1` [entacapone] as the compound, how does the “onset of motor complications and frequency of dyskinesia” value [1] read?
**A.** The value was “shorter time to onset of motor complications and increased frequency of dyskinesia”.

**Q.** Which results are given for `N[C@@H](Cc1ccc(O)c(O)c1)C(=O)O` [levodopa]?
**A.** plasma half-life of levodopa ([2]; oral levodopa combined with carbidopa): 1.5 h; half-life of oral levodopa ([2]; when administered with DDCIs): 1 to 1.5 h; extent of brain penetration of levodopa ([2]; when combined with a DDCI): 10%

**Q.** For `Cc1ccc(C(=O)c2cc(O)c(O)c([N+](=O)[O-])c2)cc1` [tolcapone], which “reduction in UPDRS Part II activities of daily living (ADL) score” value ('stable' PD patients; [3]) is on record?
**A.** Its value is −1.4 points.

**Q.** And the “reduction in UPDRS motor score” value ('stable' PD patients; [3])?
**A.** The value was −2.0 points.

**Q.** And the “reduction in UPDRS Part II activities of daily living (ADL) score” value ('stable' PD patients; [4])?
**A.** The value was −1.6 points.

**Q.** And the “reduction in UPDRS motor score” value ('stable' PD patients; [4])?
**A.** The value was −2.3 points.
